Paper PMC10619479, “Multicomponent synthesis of pyrido[2,3-b]pyrazine derivatives: electrochemical DNA sensing, nonlinear optical properties and biological activity” (RSC Advances, 2023)

What was measured:
Jack Bean Urease [1] = target: T1, Jack Bean Urease (Canavalia ensiformis, UniProt P07374); assay: biochemical; design: Jack bean urease inhibition, ammonia release by indophenol method, absorbance at 625 nm
Experimental: The enzyme responsible for catalyzing urea, known as urease, helps for the conversion of urea into carbon dioxide (CO2) through hydrolysis. To monitor the production of ammonia (NH3) and inhibit urease activity, we employed the indophenol method.[42] In the reaction mixture, consisting of Jack Bean Urease (200 μL), a buffer with a pH of 8.25 (400 μL, composed of 0.5 mM EDTA, 0.02 M K2HPO4, 0.02 M LiCl, and 120 mM urea), and test compounds (100 μL), incubation was carried out at 25 °C for approximately 30 minutes. […] In the realm of scientific investigation, thiourea functions as a benchmark inhibitor. The determination of the IC50 values entails subjecting both standard and synthesized compounds to varying concentrations under identical experimental conditions.[43,44] […] Thiourea was used as a reference point to assess the effects of substituents about the pyrido[2,3-b]pyrazine based scaffold on their urease inhibitory potential.

Jack Bean Urease [2] = target: T1, Jack Bean Urease; assay: indophenol urease inhibition assay (ammonia release, […] nm); type: biochemical
From the text: The determination of the IC50 values entails subjecting both standard and synthesized compounds

T1 sequence (P07374 whole entry): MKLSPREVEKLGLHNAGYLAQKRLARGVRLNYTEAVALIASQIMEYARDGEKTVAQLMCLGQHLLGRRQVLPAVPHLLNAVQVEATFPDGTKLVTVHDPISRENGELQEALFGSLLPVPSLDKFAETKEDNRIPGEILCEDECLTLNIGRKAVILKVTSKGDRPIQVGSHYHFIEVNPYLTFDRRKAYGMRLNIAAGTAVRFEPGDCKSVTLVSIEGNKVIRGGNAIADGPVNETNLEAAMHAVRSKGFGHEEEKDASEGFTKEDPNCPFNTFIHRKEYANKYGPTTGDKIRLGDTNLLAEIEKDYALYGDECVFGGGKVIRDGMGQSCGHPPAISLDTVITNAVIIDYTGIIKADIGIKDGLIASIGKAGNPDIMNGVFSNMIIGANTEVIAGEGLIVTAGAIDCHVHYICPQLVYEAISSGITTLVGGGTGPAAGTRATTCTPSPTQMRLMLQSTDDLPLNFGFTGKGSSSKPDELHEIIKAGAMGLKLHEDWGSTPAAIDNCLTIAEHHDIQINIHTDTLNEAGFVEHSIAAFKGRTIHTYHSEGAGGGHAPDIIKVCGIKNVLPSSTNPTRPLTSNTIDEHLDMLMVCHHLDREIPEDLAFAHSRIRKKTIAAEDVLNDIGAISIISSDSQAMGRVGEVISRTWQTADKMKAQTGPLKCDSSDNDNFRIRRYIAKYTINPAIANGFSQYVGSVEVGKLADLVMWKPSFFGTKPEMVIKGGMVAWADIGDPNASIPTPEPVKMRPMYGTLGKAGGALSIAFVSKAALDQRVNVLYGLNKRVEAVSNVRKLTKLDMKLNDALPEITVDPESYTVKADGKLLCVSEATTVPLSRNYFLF

| Structure (SMILES) | IC50 (Jack Bean Urease [1]) [µM] | IC50 (Jack Bean Urease [2]) [µM] |
| --- | --- | --- |
| O=C1C2=C(Nc3nccnc3C2c2ccc(Cl)cc2)c2ccccc21 (centres unmarked) [compound 5] |  | 4.12 ± 1.18 |
| COc1ccc(C2C3=C(Nc4nccnc42)c2ccccc2C3=O)cc1 (centres unmarked) [compound 7] | 11.9 ± 0.34 |  |
| NC(N)=S [thiourea] | 1.94 ± 0.36 |  |

Now from value to compound, other results behind:

| IC50 (Jack Bean Urease [1]) [µM] | Structure (SMILES) | IC50 (Jack Bean Urease [2]) [µM] |
| --- | --- | --- |
| 6.79 ± 0.92 | O=Cc1ccc(C2C3=C(Nc4nccnc42)c2ccccc2C3=O)cc1 (centres unmarked) [compound 4] |  |
| 4.77 ± 0.92 | O=C1C2=C(Nc3nccnc3C2c2ccc([N+](=O)[O-])cc2)c2ccccc21 (centres unmarked) [compound 6] |  |
